Laboratory results published in patent publication US20230073777A1, “CYCLIC-AMP RESPONSE ELEMENT BINDING PROTEIN (CBP) AND/OR ADENOVIRAL E1A BINDING PROTEIN OF 300 KDA (P300) DEGRADATION COMPOUNDS AND METHODS OF USE” (CULLGEN (SHANGHAI), INC., priority 2019, published 2023).
Read-outs that look alike come from different tables or passages of the source.

Tests used:
P300 = P300 (Homo sapiens, UniProt Q09472); experiment: Immunoblotting of P300 protein levels in LNCaP or 22RV1 cells; assay type: cell-based; design: LNCaP or 22RV1 cells that express CBP/P300 proteins were treated with GNE-781 or the bivalent compounds; endogenous in cells; host or cells: LNCaP (clone FGC) or 22RV1 cells; details: read-out: Degradation (10 nM)
P300, sequence (Q09472 whole entry): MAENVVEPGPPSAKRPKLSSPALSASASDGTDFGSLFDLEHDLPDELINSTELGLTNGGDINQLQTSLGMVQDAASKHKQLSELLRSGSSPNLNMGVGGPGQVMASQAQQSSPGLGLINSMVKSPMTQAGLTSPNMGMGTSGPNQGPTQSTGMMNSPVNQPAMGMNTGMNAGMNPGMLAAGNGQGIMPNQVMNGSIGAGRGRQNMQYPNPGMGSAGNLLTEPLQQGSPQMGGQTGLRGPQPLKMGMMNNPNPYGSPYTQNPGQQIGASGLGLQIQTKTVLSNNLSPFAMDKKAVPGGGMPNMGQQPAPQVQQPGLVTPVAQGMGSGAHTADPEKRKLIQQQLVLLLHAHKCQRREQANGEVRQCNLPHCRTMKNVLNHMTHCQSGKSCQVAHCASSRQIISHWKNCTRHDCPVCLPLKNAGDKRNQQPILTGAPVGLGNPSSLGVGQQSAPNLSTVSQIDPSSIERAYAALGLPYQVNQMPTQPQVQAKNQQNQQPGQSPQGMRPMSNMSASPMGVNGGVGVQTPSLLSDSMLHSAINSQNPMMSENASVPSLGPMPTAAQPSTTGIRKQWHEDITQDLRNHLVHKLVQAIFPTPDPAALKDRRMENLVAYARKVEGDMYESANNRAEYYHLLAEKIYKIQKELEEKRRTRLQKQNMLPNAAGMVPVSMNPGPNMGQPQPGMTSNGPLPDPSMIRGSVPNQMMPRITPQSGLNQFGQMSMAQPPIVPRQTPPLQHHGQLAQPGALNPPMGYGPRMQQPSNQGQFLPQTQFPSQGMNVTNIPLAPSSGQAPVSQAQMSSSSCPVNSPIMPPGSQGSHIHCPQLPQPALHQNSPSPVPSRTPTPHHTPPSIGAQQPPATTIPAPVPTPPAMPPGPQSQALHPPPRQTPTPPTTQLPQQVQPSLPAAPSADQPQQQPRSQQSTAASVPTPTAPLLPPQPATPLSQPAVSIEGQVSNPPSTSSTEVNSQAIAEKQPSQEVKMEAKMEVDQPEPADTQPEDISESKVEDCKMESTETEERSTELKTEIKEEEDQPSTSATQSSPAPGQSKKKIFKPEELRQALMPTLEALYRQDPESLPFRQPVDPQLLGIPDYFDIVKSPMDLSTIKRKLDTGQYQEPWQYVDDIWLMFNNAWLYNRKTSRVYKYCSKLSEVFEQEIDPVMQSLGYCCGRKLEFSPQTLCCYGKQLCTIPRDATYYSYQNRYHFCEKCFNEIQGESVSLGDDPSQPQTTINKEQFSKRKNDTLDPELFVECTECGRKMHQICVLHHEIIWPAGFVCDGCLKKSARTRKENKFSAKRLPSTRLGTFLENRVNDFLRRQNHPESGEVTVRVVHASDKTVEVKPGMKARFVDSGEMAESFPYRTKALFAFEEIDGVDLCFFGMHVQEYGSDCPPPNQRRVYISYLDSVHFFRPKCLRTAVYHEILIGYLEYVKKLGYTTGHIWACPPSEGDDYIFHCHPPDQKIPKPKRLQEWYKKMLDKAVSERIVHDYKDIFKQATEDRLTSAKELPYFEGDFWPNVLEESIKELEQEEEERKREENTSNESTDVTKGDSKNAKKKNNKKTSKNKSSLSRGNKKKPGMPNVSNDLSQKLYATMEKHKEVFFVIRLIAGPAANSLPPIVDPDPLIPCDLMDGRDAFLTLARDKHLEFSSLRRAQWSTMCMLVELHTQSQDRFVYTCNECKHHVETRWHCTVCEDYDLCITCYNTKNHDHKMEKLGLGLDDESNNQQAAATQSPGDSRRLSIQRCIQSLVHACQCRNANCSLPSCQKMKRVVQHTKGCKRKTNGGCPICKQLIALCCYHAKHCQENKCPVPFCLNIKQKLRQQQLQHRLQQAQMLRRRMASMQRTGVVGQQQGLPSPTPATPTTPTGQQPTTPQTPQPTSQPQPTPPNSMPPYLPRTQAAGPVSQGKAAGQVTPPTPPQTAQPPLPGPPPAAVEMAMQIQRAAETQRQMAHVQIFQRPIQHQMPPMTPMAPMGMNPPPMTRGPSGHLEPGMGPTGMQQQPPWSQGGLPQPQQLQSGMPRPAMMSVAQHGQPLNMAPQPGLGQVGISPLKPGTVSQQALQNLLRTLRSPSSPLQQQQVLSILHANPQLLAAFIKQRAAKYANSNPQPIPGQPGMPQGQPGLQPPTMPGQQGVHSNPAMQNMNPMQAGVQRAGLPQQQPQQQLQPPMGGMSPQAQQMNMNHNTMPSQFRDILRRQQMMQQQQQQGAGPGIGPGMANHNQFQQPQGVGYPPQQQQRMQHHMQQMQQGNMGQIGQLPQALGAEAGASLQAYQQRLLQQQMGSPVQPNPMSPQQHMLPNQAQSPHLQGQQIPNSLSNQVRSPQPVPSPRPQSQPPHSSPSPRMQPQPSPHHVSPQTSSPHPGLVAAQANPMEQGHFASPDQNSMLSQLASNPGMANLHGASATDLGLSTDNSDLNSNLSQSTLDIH
Protocol: Specific exemplary bivalent compounds were characterized in LNCaP or 22RV1 cells. LNCaP or 22RV1 cells that express CBP/P300 proteins were treated with GNE-781 or the bivalent compounds disclosed herein (P-001 to P-174) for indicated hours. Cells were collected, lysed and subject to immunoblotting using an antibody specific to P300 or CBP proteins. Tubulin or vinculin was included as the loading control. DMSO was used as the negative control.
Cultured cells or tissue chunks were washed with cold PBS once and lysed in cold RIPA buffer supplemented with protease inhibitors and phosphatase inhibitors (Beyotime Biotechnology). The solutions were then incubated at 4° C. for 30 minutes with gentle agitation to fully lyse cells. Cell lysates were centrifuged at 13,000 rpm for 10 minutes at 4° C. and pellets were discarded. Total protein concentrations in the lysates were determined by BCA assays (Beyotime Biotechnology). Cell lysates were mixed with Laemmli loading buffer to 1× and heated at 99° C. for 5 min. Proteins were resolved on SDS-PAGE and visualized by chemiluminescence. Images were taken by a ChemiDoc MP Imaging system (Bio-Rad). Protein bands were quantitated using the accompanied software provided by Bio-Rad.

LNCaP cells = experiment: LNCaP cell viability assay (CellTiter-Glo); assay type: cell-based; details: Homo sapiens, 72 h, LNCaP prostate cancer cell viability inhibition, 3 days
Method in brief: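 Three-day treatment of LNCaP cells (5000 per well) across a 12-point, 3-fold dilution series starting at 10 μM. ATP luminescence (CellTiter-Glo) relative to untreated controls gave dose-response curves fitted nonlinearly for IC50.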

[1] = percentage of inhibition of p300 at 10 nM (Table 2)
[2] = percentage of inhibition of p300 at 10 nM (Table 3)

`CNC(=O)N1CCc2c(c(N3CCCc4cc(-c5cnn(CC(=O)NCCCCCCCCCC(=O)NC(C(=O)N6C[C@H](O)C[C@H]6C(=O)NCc6ccc(-c7scnc7C)cc6)C(C)(C)C)c5)c(C(F)F)cc43)nn2C2CCOCC2)C1` (stereo in doubt) [P-049, 3-(7-(Difluoromethyl)-6-(1-(2-((10-(((S)-1-((2S,4R)-4-hydroxy-2-((4-(4-methylthiazol-5-yl)benzyl)carbamoyl)pyrrolidin-1-yl)-3,3-dimethyl-1-oxobutan-2-yl)amino)-10-oxodecyl)amino)-2-oxoethyl)-1H-pyrazol-4-yl)-3,4-dihydroquinolin-1(2H)-yl)-N-methyl-1-(tetrahydro-2H-pyran-4-yl)-1,4,6,7-tetrahydro-5H-pyrazolo[4,3-c]pyridine-5-carboxamide] gave an inhibition at 0.01 µM (P300; [1]) of under 20% and an IC50 (LNCaP cells; CellTiter-Glo (Table 2)) of 234 nM.
For `CC(=O)N1CCc2c(c(N3CCCc4cc(-c5cnn(C)c5)c(C(F)F)cc43)nn2C2CCN(C(=O)CCCCCOc3cccc4c3CN(C3CCC(=O)NC3=O)C4=O)CC2)C1` (centres unmarked) [P-121, 3-(4-((6-(4-(5-Acetyl-3-(7-(difluoromethyl)-6-(1-methyl-1H-pyrazol-4-yl)-3,4-dihydroquinolin-1(2H)-yl)-4,5,6,7-tetrahydro-1H-pyrazolo[4,3-c]pyridin-1-yl)piperidin-1-yl)-6-oxohexyl)oxy)-1-oxoisoindolin-2-yl)piperidine-2,6-dione], the inhibition at 0.01 µM (P300; [2]) was over 80% and the IC50 (LNCaP cells; CellTiter-Glo (Table 3)) was 28.8 nM.
`CC(=O)N1CCc2c(c(N3CCCc4cc(-c5cnn(C)c5)c(C(F)F)cc43)nn2C2CCN(C(=O)CCCCCCCNc3ccc4c(c3)C(=O)N(C3CCC(=O)NC3=O)C4=O)CC2)C1` (centres unmarked) [P-119, 5-((8-(4-(5-acetyl-3-(7-(difluoromethyl)-6-(1-methyl-1H-pyrazol-4-yl)-3,4-dihydroquinolin-1(2H)-yl)-4,5,6,7-tetrahydro-1H-pyrazolo[4,3-c]pyridin-1-yl)piperidin-1-yl)-8-oxooctyl)amino)-2-(2,6-dioxopiperidin-3-yl)isoindoline-1,3-dione] gave an inhibition at 0.01 µM (P300; [2]) of over 80% and an IC50 (LNCaP cells; CellTiter-Glo (Table 3)) of 1.7 nM.
In the case of `CNC(=O)N1CCc2c(c(N3CCCc4cc(-c5cnn(C)c5)c(C(F)F)cc43)nn2C2CCN(C(=O)CCCCCNc3cccc4c3n(C)c(=O)n4C3CCC(=O)NC3=O)CC2)C1` (centres unmarked) [P-109, 3-(7-(difluoromethyl)-6-(1-methyl-1H-pyrazol-4-yl)-3,4-dihydroquinolin-1(2H)-yl)-1-(1-(6-((1-(2,6-dioxopiperidin-3-yl)-3-methyl-2-oxo-2,3-dihydro-1H-benzo[d]imidazol-4-yl)amino)hexanoyl)piperidin-4-yl)-N-methyl-1,4,6,7-tetrahydro-5H-pyrazolo[4,3-c]pyridine-5-carboxamide], the inhibition at 0.01 µM (P300; [2]) is reported as over 80% and the IC50 (LNCaP cells; CellTiter-Glo (Table 3)) is reported as 12.9 nM.
Work on `CC(=O)N1CCc2c(c(N3CCCc4cc(-c5cnn(CC(=O)NCCCCCCCNc6ccc7c(c6)C(=O)N(C6CCC(=O)NC6=O)C7=O)c5)c(C(F)F)cc43)nn2C2CCOCC2)C1` (centres unmarked) [P-133, 2-(4-(1-(5-acetyl-1-(tetrahydro-2H-pyran-4-yl)-4,5,6,7-tetrahydro-1H-pyrazolo[4,3-c]pyridin-3-yl)-7-(difluoromethyl)-1,2,3,4-tetrahydroquinolin-6-yl)-1H-pyrazol-1-yl)-N-(7-((2-(2,6-dioxopiperidin-3-yl)-1,3-dioxoisoindolin-5-yl)amino)heptyl)acetamide] yielded an inhibition at 0.01 µM (P300; [2]) of over 80% and an IC50 (LNCaP cells; CellTiter-Glo (Table 3)) of 4 nM.
In the case of `CC(=O)N1CCc2c(c(N3CCCc4cc(-c5cnn(C)c5)c(C(F)F)cc43)nn2C2CCN(CC3CCN(CC#Cc4cccc5c4C(=O)N(C4CCC(=O)NC4=O)C5=O)CC3)CC2)C1` (centres unmarked) [P-150, 4-(3-(4-((4-(5-Acetyl-3-(7-(difluoromethyl)-6-(1-methyl-1H-pyrazol-4-yl)-3,4-dihydroquinolin-1(2H)-yl)-4,5,6,7-tetrahydro-1H-pyrazolo[4,3-c]pyridin-1-yl)piperidin-1-yl)methyl)piperidin-1-yl)prop-1-yn-1-yl)-2-(2,6-dioxopiperidin-3-yl)isoindoline-1,3-dione], the inhibition at 0.01 µM (P300; [2]) is reported as over 80% and the IC50 (LNCaP cells; CellTiter-Glo (Table 3)) is reported as 191 nM.
In the case of `CNC(=O)N1CCc2c(c(N3CCCc4cc(-c5cnn(C)c5)c(C(F)F)cc43)nn2C2CCN(C(=O)CCOCCOCCOCCOCCOCCNc3cccc4c3C(=O)N(C3CCC(=O)NC3=O)C4=O)CC2)C1` (centres unmarked) [P-055, 3-(7-(Difluoromethyl)-6-(1-methyl-1H-pyrazol-4-yl)-3,4-dihydroquinolin-1(2H)-yl)-1-(1-(1-((2-(2,6-dioxopiperidin-3-yl)-1,3-dioxoisoindolin-4-yl)amino)-3,6,9,12,15-pentaoxaoctadecan-18-oyl)piperidin-4-yl)-N-methyl-1,4,6,7-tetrahydro-5H-pyrazolo[4,3-c]pyridine-5-carboxamide], the inhibition at 0.01 µM (P300; [2]) is reported as under 20% and the IC50 (LNCaP cells; CellTiter-Glo (Table 3)) is reported as 161 nM.
For `CNC(=O)N1CCc2c(c(N3CCCc4cc(-c5cnn(C)c5)c(C(F)F)cc43)nn2C2CCN(C(=O)CCOCCOCCOCCNc3ccc4c(c3)C(=O)N(C3CCC(=O)NC3=O)C4=O)CC2)C1` (centres unmarked) [P-010, 3-(7-(Difluoromethyl)-6-(1-methyl-1H-pyrazol-4-yl)-3,4-dihydroquinolin-1(2H)-yl)-1-(1-(3-(2-(2-(2-((2-(2,6-dioxopiperidin-3-yl)-1,3-dioxoisoindolin-5-yl)amino)ethoxy)ethoxy)ethoxy)propanoyl)piperidin-4-yl)-N-methyl-1,4,6,7-tetrahydro-5H-pyrazolo[4,3-c]pyridine-5-carboxamide], the inhibition at 0.01 µM (P300; [1]) was 20 to 50% and the IC50 (LNCaP cells; CellTiter-Glo (Table 2)) was 152 nM.
`CC(=O)N1CCc2c(c(N3CCCc4cc(-c5cnn(C)c5)c(C(F)F)cc43)nn2C2CCN(C(=O)CCCCCNc3cccc4nc(C)n(C5CCC(=O)NC5=O)c(=O)c34)CC2)C1` (centres unmarked) [P-165, 3-(5-((6-(4-(5-Acetyl-3-(7-(difluoromethyl)-6-(1-methyl-1H-pyrazol-4-yl)-3,4-dihydroquinolin-1(2H)-yl)-4,5,6,7-tetrahydro-1H-pyrazolo[4,3-c]pyridin-1-yl)piperidin-1-yl)-6-oxohexyl)amino)-2-methyl-4-oxoquinazolin-3(4H)-yl)piperidine-2,6-dione] was tested, and the inhibition at 0.01 µM (P300; [2]) was 50 to 80% and the IC50 (LNCaP cells; CellTiter-Glo (Table 3)) was 123 nM.
`CNC(=O)N1CCc2c(c(N3CCCc4cc(-c5cnn(C)c5)c(C(F)F)cc43)nn2C2CCN(C(=O)CCCCCCc3cccc4c3C(=O)N(C3CCC(=O)NC3=O)C4=O)CC2)C1` (centres unmarked) [P-085, 3-(7-(difluoromethyl)-6-(1-methyl-1H-pyrazol-4-yl)-3,4-dihydroquinolin-1(2H)-yl)-1-(1-(7-(2-(2,6-dioxopiperidin-3-yl)-1,3-dioxoisoindolin-4-yl)heptanoyl)piperidin-4-yl)-N-methyl-1,4,6,7-tetrahydro-5H-pyrazolo[4,3-c]pyridine-5-carboxamide] showed an inhibition at 0.01 µM (P300; [2]) of over 80% and an IC50 (LNCaP cells; CellTiter-Glo (Table 3)) of 3.8 nM.
`CNC(=O)N1CCc2c(c(N3CCCc4cc(-c5cnn(C)c5)c(C(F)F)cc43)nn2C2CCN(C(=O)CCCCC(=O)N[C@H](C(=O)N3C[C@H](O)C[C@H]3C(=O)NCc3ccc(-c4scnc4C)cc3)C(C)(C)C)CC2)C1` [P-058, 3-(7-(Difluoromethyl)-6-(1-methyl-1H-pyrazol-4-yl)-3,4-dihydroquinolin-1(2H)-yl)-1-(1-(6-(((S)-1-((2S,4R)-4-hydroxy-2-((4-(4-methylthiazol-5-yl)benzyl)carbamoyl)pyrrolidin-1-yl)-3,3-dimethyl-1-oxobutan-2-yl)amino)-6-oxohexanoyl)piperidin-4-yl)-N-methyl-1,4,6,7-tetrahydro-5H-pyrazolo[4,3-c]pyridine-5-carboxamide] showed an inhibition at 0.01 µM (P300; [2]) of under 20% and an IC50 (LNCaP cells; CellTiter-Glo (Table 3)) of 67.8 nM.
`CNC(=O)N1CCc2c(c(N3CCCc4cc(-c5cnn(C)c5)c(C(F)F)cc43)nn2C2CCN(C(=O)CCOCCOCCOCCOCCNc3cccc4c3C(=O)N(C3CCC(=O)NC3=O)C4=O)CC2)C1` (centres unmarked) [P-054, 3-(7-(Difluoromethyl)-6-(1-methyl-1H-pyrazol-4-yl)-3,4-dihydroquinolin-1(2H)-yl)-1-(1-(1-((2-(2,6-dioxopiperidin-3-yl)-1,3-dioxoisoindolin-4-yl)amino)-3,6,9,12-tetraoxapentadecan-15-oyl)piperidin-4-yl)-N-methyl-1,4,6,7-tetrahydro-5H-pyrazolo[4,3-c]pyridine-5-carboxamide] showed an inhibition at 0.01 µM (P300; [2]) of under 20% and an IC50 (LNCaP cells; CellTiter-Glo (Table 3)) of 122 nM.
In the case of `CNC(=O)N1CCc2c(c(N3CCCc4cc(-c5cnn(CC(=O)NCCNc6ccc7c(c6)C(=O)N(C6CCC(=O)NC6=O)C7=O)c5)c(C(F)F)cc43)nn2C2CCOCC2)C1` (centres unmarked) [P-016, 3-(7-(Difluoromethyl)-6-(1-(2-((2-((2-(2,6-dioxopiperidin-3-yl)-1,3-dioxoisoindolin-5-yl)amino)ethyl)amino)-2-oxoethyl)-1H-pyrazol-4-yl)-3,4-dihydroquinolin-1(2H)-yl)-N-methyl-1-(tetrahydro-2H-pyran-4-yl)-1,4,6,7-tetrahydro-5H-pyrazolo[4,3-c]pyridine-5-carboxamide], the inhibition at 0.01 µM (P300; [1]) is reported as under 20% and the IC50 (LNCaP cells; CellTiter-Glo (Table 2)) is reported as 3040 nM.
